Read-outs that look alike come from different tables or passages of the source.
Experiments:
Ras = Ras activity pull-down in H2122 xenograft tumors; format: in vivo, human; details: BQU57 treated H2122 tumors, 3 h post-dose
Excerpt: (§1) Activity assay kits for Ras (#BK008) and RhoA (#BK036) were obtained from Cytoskeleton (Denver, Colo.). We used an ELISA for Ral activity based on selective binding of active RalA-GTP to its effector protein RalBP1.
(§2) Finally, we evaluated Ral GTPase activity in vivo in the H2122 xenografts. Nude mice were inoculated with 5×10^6 cells H2122 cells s.c. at four sites per mice. Tumor size reached an average of 250 mm^3 in ten days, at which time mice were given a signal i.p. dose of RBC8 or BQU57 at various concentrations. Tumors were then collected 3 h after injection of RBC8 or BQU57. RalA and RalB activity in tumor samples were then measured using the RalBP1 pull-down assay kit (Millipore #14-415). Ras and RhoA activity in tumor samples were measured using the respective pull-down assay kits. All the activity assays used western blotting as the final readout. For quantification of the immunoblots, the bands on each blot were first normalized to their respective internal control (10 ng of recombinant Ral, Ras, or […] protein run in the last lane) the numbers were then compared across different blots, each of which represented one treatment condition. Mice bearing H2122 tumors (median size 250 mm^3) were given a single intraperitoneal dose of RBC8 (50 mg/kg) or BQU57 (10/20/50 mg/kg) and tumors collected 3 h post-dose.

RhoA = target: T1, RhoA (Homo sapiens, UniProt P61586); assay: RhoA activity pull-down in H2122 xenograft tumors; format: in vivo; details: BQU57 treated H2122 tumors, 3 h post-dose
T1 construct: from tissue; host or cells: H2122 xenograft tumours from nude mice
T1 sequence (P61586 whole entry): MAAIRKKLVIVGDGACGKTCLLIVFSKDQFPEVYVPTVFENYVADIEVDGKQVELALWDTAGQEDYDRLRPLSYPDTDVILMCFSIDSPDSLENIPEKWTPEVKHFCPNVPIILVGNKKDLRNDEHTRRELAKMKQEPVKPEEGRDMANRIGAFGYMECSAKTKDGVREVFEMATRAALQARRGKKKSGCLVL
Excerpt: as §1, §2

H2122 cells = assay: Soft agar colony formation (anchorage-independent growth); format: cell-based, human; details: for further growth inhibition by drug after siRNA knockdown of RalA and RalB: H2122 cells with siRNA knockdown of RalA and RalB; for growth inhibition effect with overexpression of constitutively active RalAG23V or RalBG23V: H2122 cells, transient transfection
Method: (§3) The effects of RBC8 and BQU57 on human lung cancer cell growth were evaluated. Because Ral is well-known for its role in anchorage independence, we carried out growth inhibition assays in soft agar. Four human lung cancer cells H2122, H358, H460 and Calu6 were used in a series of experiments to determine drug uptake, biologic specificity, and effect. To measure growth inhibition of human lung cancer cells under anchorage-independent conditions in soft agar, cells were seeded into 6-well plates (coated with a base layer made of 2 ml of 1% low-melting-point agarose) at 15,000 cells per well in 3 ml of 0.4% low-melting-point agarose containing various concentration of drug. Two to four weeks (depending on cell line) after incubation, cells were stained with 1 mg/ml MTT and colonies were counted under a microscope.
(§4) For the chemo-genetic experiments, siRNA treated cells were seeded into soft agar in the presence of various concentrations of drug. For the overexpression experiments, H358 cells stably overexpressing FLAG, FLAG-RalA^G23V or FLAG-RalB^G23V were generated and cells were subjected to the soft agar colony formation assay in the presence of drug. Attempts to stably overexpress FLAG-RalA^G23V or FLAG-RalB^G23V in H2122 cells were unsuccessful and the rescue experiments with H2122 were carried out 72 hrs after the transient transfection with FLAG, FLAG-RalA^G23V or FLAG-RalB^G23V using the soft agar colony formation assay in the presence of drug.

H358 cells = assay: as above; format: cell-based, human; details: for further growth inhibition by drug after siRNA knockdown of RalA and RalB: H358 cells with siRNA knockdown of RalA and RalB; for growth inhibition effect with overexpression of constitutively active RalAG23V or RalBG23V: H358 cells, stable overexpression
Method: as §3, §4

RalA [1] = target: T2, RalA (Homo sapiens, UniProt P11233); assay: RalBP1 pull-down of Ral activity in H2122 xenograft tumors; format: in vivo; details: single i.p. dose, RBC8 50 mg/kg or BQU57 10/20/50 mg/kg, tumors collected 3 h post-dose
T2 sequence (P11233 1-206): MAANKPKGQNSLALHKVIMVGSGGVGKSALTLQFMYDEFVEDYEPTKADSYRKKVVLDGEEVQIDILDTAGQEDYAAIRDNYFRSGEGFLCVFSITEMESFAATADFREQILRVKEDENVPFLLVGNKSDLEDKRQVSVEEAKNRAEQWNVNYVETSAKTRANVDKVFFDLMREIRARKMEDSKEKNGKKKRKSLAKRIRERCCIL
Method: as §2

RalB [2] = target: T3, RalB (Homo sapiens, UniProt P11234); assay: as above; format: in vivo; details: single i.p. dose, RBC8 50 mg/kg or BQU57 10/20/50 mg/kg, tumors collected 3 h post-dose
T3 sequence (P11234 1-206): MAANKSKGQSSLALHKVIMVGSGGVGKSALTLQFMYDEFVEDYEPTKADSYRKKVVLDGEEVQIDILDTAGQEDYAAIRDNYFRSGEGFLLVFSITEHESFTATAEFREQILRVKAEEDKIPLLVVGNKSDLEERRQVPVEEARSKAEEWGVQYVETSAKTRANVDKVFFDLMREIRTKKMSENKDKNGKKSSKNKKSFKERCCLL
Method: as §2

RalA [3] = target: T2, RalA; assay: Ral activity pull-down assay with RalBP1 agarose beads in cells; format: cell-based; set-up: endogenous in cells; host or cells: H2122 and H358 human lung cancer cells; details: H2122 and H358 cells, 10 μM compound, 3 hrs
Method: (§5) FIGS. 6A-6E show the cellular uptake of Ral inhibitors in vitro. H2122 human lung cancer cells were treated with 10 μM of RBC8 (FIG. 6A), BQU57 (FIG. 6B), BQU85 (FIG. 6C), and RBC5 (FIG. 6D). Cells were collected at different time points (1, 5, 15, 30 and 60 min), and drug concentrations in cells determined using LC/MS-MS methods (n=3 for each time point). […] Cells were grown under anchorage-independent conditions and treated with 10 μM compounds for 3 hours. Ral activity in cell lysates were then determined using the pull down assay with RalBP1 agarose beads. Data represent three independent experiments.
(§6) To confirm that Ral activity is inhibited in H2122 and H358 cells by drug treatment, we performed the Ral activity pull-down assay. Cells were treated with drug for 3 hrs, collected and Ral activity measured using the RalBP1 pull-down assay kit (Millipore #14-415). RBC8 and BQU57 but not RBC5 inhibited both RalA and RalB activity in both cell lines (FIG. 6E).

RalB [4] = target: T3, RalB; assay: as above; format: cell-based; set-up: endogenous in cells; host or cells: H2122 and H358 human lung cancer cells; details: H2122 and H358 cells, 10 μM compound, 3 hrs
Method: as §5, §6

IC50 (H2122 cells; H2122, soft agar, 2-4 weeks, read-out: IC50 (50% reduction in colony number)) [nM] | IC50 (H358 cells; H358, soft agar, 2-4 weeks, read-out: IC50 (50% reduction in colony number)) [nM] | SMILES | inhibition of Ras activity in tumors (Ras) | inhibition of RhoA activity in tumors (RhoA) | further growth inhibition by drug after siRNA knockdown of RalA and RalB (H2122 cells) | growth inhibition effect with overexpression of constitutively active RalAG23V or RalBG23V (H2122 cells) | IC50 (H2122 cells; Homo sapiens, NCI-H2122, read-out: IC50 (50% reduction in colony number)) [nM] | further growth inhibition by drug after siRNA knockdown of RalA and RalB (H358 cells) | growth inhibition effect with overexpression of constitutively active RalAG23V or RalBG23V (H358 cells) | IC50 (H358 cells; Homo sapiens, NCI-H358, read-out: IC50 (50% reduction in colony number)) [nM] | inhibition of RalA activity in tumors (RalA [1]) | inhibition of RalB activity in tumors (RalB [2]) | inhibition of RalA activity (RalA [3]) | inhibition of RalB activity (RalB [4])
 |  | Cc1nn(C)c2c1C(c1ccc(C(F)(F)F)cc1)C(C#N)=C(N)O2 (stereo not shown) [BQU57, 6-amino-1,3-dimethyl-4-(4-(trifluoromethyl)phenyl)-1,4-dihydropyrano[2,3-c]pyrazole-5-carbonitrile] | no significant inhibition | no significant inhibition | did not result in significant further inhibition | rescue | 2000 | did not result in significant further inhibition | rescue | 1300 | significant inhibition | significant inhibition | inhibited | inhibited
3500 | 3400 | COc1ccc(OC)c(C2C(C#N)=C(N)Oc3n[nH]c(-c4ccc5ccccc5c4)c32)c1 (stereo not shown) [RBC8] |  |  | did not result in significant further inhibition | rescue |  | did not result in significant further inhibition | rescue |  | significant inhibition | significant inhibition | inhibited | inhibited
